From patent US8697683B2, “Azetidinyl diamides as monoacylglycerol lipase inhibitors” (Janssen Pharmaceutica, NV, priority 2009, dated 2014) come the findings set out here.

As a reminder, the IC50 is the concentration at which inhibition is half-maximal.

The structures appear in SMILES notation. Where a chain is given by its changes, count along the chain named.

The target of one assay is T1, MGL (Rattus norvegicus, UniProt Q8R431).
T1 construct: one g rat brain was homogenized
T1 sequence (Q8R431 1-303): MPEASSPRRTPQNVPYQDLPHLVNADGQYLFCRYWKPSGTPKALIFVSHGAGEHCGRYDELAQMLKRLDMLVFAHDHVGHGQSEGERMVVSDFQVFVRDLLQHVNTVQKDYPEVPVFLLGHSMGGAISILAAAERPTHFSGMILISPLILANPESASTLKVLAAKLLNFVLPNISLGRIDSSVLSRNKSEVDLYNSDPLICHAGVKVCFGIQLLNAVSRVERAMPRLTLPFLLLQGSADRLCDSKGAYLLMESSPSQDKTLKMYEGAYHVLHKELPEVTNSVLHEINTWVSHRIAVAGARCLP
In words: 2-AG Accumulation Assay (rat brain homogenate). It counts as biochemical. To be noted: compound 1 μM, percent of vehicle 2-AG accumulation.
With `O=C(c1ccc(OCc2cccc(Cl)c2)cc1)N1CC(N2CCN(C(=O)c3nccs3)CC2)C1` [Cpd 957], the “Rat Brain 2AG % VehCntrl (%) @1 μM” value came out at 1442%.
Still for that read-out and setting: the same measure for `O=C(c1ccc(OCc2ccc(Cl)s2)cc1)N1CC(N2CCN(C(=O)c3nccs3)CC2)C1` [Cpd 962]: 1213%; for `O=C(c1ccc(OCc2ccc3ccccc3n2)cc1)N1CC(N2CCN(C(=O)c3nccs3)CC2)C1` [Cpd 967]: 1373%.
On the same count and under the same terms, the same measure for `O=C(c1ccc(Cc2ccc(C(F)(F)F)cc2)cc1)N1CC(N2CCN(C(=O)c3nccs3)CC2)C1` [Cpd 985]: 1116%.
On the same count and under the same terms, then `O=C(c1ccc2c(c1)CCN2Cc1ccccc1)N1CC(N2CCN(C(=O)c3nccs3)CC2)C1` [Cpd 994, 1-Benzyl-5-({3-[4-(1,3-thiazol-2-ylcarbonyl)piperazin-1-yl]azetidin-1-yl}carbonyl)-2,3-dihydro-1H-indole], with 1014%; and `O=C(c1ccc(Cc2cccc(C(F)(F)F)c2)cc1)N1CC(N2CCN(C(=O)c3nccs3)CC2)C1` [Cpd 995], with 1080%.
Take `Cc1c(Cc2ccc(C(F)(F)F)cc2)cccc1C(=O)N1CC(N2CCN(C(=O)c3nccs3)CC2)C1` [Cpd 1008]: the “Rat Brain 2AG % VehCntrl (%) @1 μM” value was determined as 1125%.
Same read-out and setting: the same measure for `O=C(c1nn(-c2ccc(Cl)cc2Cl)c2c1CCC/C2=C\c1ccc(Cl)cc1)N1CC(N2CCN(C(=O)C(F)(F)F)CC2)C1` [Cpd 1020]: 135%; for `Cn1cc(Cc2ccc(F)cc2)c2ccc(C(=O)N3CC(N4CCN(C(=O)c5nccs5)CC4)C3)cc21` [Cpd 1026]: 1014%; for `Cc1cn(-c2ccccc2)c2ccc(C(=O)N3CC(N4CCN(C(=O)c5nccs5)CC4)C3)cc12` [Cpd 1054]: 1008%.
Still for that read-out and setting: the same measure for `Cn1cc(-c2cccc(C(F)(F)F)c2)c2ccc(C(=O)N3CC(N4CCN(C(=O)c5cscn5)CC4)C3)cc21` [Cpd 1084]: 1165%; for `Cn1cc(-c2cccc(C(F)(F)F)c2)c2ccc(C(=O)N3CC(N4CCN(C(=O)c5nccs5)CC4)C3)cc21` [Cpd 1100]: 1133%; for `O=C(c1ccc2nc(-c3ccccc3)sc2c1)N1CC(N2CCN(C(=O)c3nccs3)CC2)C1` [Cpd 1125, 2-Phenyl-6-({3-[4-(1,3-thiazol-2-ylcarbonyl)piperazin-1-yl]azetidin-1-yl}carbonyl)-1,3-benzothiazole]: 1228%.
In the case of `Cn1cc(-c2ccccc2)c2ccc(C(=O)N3CC(N4CCN(C(=O)c5nccs5)CC4)C3)cc21` [Cpd 1132, 1-Methyl-3-phenyl-6-({3-[4-(1,3-thiazol-2-ylcarbonyl)piperazin-1-yl]azetidin-1-yl}carbonyl)-1H-indole], the “Rat Brain 2AG % VehCntrl (%) @1 μM” value is 1259%.
Take `Cn1cc(-c2cccc(F)c2)c2ccc(C(=O)N3CC(N4CCN(C(=O)c5nccs5)CC4)C3)cc21` [Cpd 1142]: the “Rat Brain 2AG % VehCntrl (%) @1 μM” value is on record as 1314%.
Still for that read-out and setting: then `O=C(c1ccc2nc(-c3cccc(C(F)(F)F)c3)oc2c1)N1CC(N2CCN(C(=O)c3nccs3)CC2)C1` [Cpd 1158, 6-({3-[4-(1,3-Thiazol-2-ylcarbonyl)piperazin-1-yl]azetidin-1-yl}carbonyl)-2-[3-(trifluoromethyl)phenyl]-1,3-benzoxazole], with 1623%; and `O=C(c1ccc2c(ccn2-c2ncccn2)c1)N1CC(N2CCN(C(=O)c3nccs3)CC2)C1` [Cpd 1174, 1-Pyrimidin-2-yl-5-({3-[4-(1,3-thiazol-2-ylcarbonyl)piperazin-1-yl]azetidin-1-yl}carbonyl)-1H-indole], with 1021%.
As for `Cn1cc(-c2ccc(F)cc2)c2ccc(C(=O)N3CC(N4CCN(C(=O)c5nccs5)CC4)C3)cc21` [Cpd 1318, 3-(4-Fluorophenyl)-1-methyl-6-({3-[4-(1,3-thiazol-2-ylcarbonyl)piperazin-1-yl]azetidin-1-yl}carbonyl)-1H-indole], the “Rat Brain 2AG % VehCntrl (%) @1 μM” value came to 1282%.
Still for that read-out and setting: the same measure for `O=C(c1ccc2c(-c3cccc(F)c3)c[nH]c2c1)N1CC(N2CCN(C(=O)c3nccs3)CC2)C1` [Cpd 1319]: 1276%.
Still for that read-out and setting: the same measure for `O=C(c1ccc(-c2nc(-c3ccccc3Cl)cs2)cc1)N1CC(N2CCN(C(=O)c3nccs3)CC2)C1` [Cpd 1328]: 1086%.
On the same count and under the same terms, then `O=C(c1ccc(-c2nc(-c3cccc(C(F)(F)F)c3)cs2)cc1)N1CC(N2CCN(C(=O)c3nccs3)CC2)C1` [Cpd 1332], with 1168%.
Regarding `O=C(c1ccc2c(-c3cccc(C(F)(F)F)c3)c[nH]c2c1)N1CC(N2CCN(C(=O)c3nccs3)CC2)C1` [Cpd 1341, 6-({3-[4-(1,3-Thiazol-2-ylcarbonyl)piperazin-1-yl]azetidin-1-yl}carbonyl)-3-[3-(trifluoromethyl)phenyl]-1H-indole], the “Rat Brain 2AG % VehCntrl (%) @1 μM” value amounted to 1149%.
Same read-out and setting: then `O=C(c1nccs1)N1CCN(C2CN(C(=O)c3ccc4c(ccn4-c4ccc(F)cc4)c3F)C2)CC1` [Cpd 1348, 4-Fluoro-1-(4-fluorophenyl)-5-({3-[4-(1,3-thiazol-2-ylcarbonyl)piperazin-1-yl]azetidin-1-yl}carbonyl)-1H-indole], with 1428%.
Still for that read-out and setting: the same measure for `O=C(c1ccc2c(ccn2-c2cccc(C(F)(F)F)c2)c1)N1CC(N2CCN(C(=O)c3nccs3)CC2)C1` [Cpd 1356, 5-({3-[4-(1,3-Thiazol-2-ylcarbonyl)piperazin-1-yl]azetidin-1-yl}carbonyl)-1-[3-(trifluoromethyl)phenyl]-1H-indole]: 1420%.
The same measure, in the same setting: then `O=C(c1ccc2c(ccn2-c2ccc(C(F)(F)F)cc2)c1)N1CC(N2CCN(C(=O)c3nccs3)CC2)C1` [Cpd 1357, 5-({3-[4-(1,3-Thiazol-2-ylcarbonyl)piperazin-1-yl]azetidin-1-yl}carbonyl)-1-[4-(trifluoromethyl)phenyl]-1H-indole], with 2570%.
Take `O=C(c1ccc2c(ccn2-c2ccc(F)cc2)c1)N1CC(N2CCN(C(=O)c3cscn3)CC2)C1` [Cpd 1358, 1-(4-Fluorophenyl)-5-({3-[4-(1,3-thiazol-4-ylcarbonyl)piperazin-1-yl]azetidin-1-yl}carbonyl)-1H-indole]: the “Rat Brain 2AG % VehCntrl (%) @1 μM” value came out at 1183%.
Same read-out and setting: then `O=C(c1ccc2c(ccn2-c2ccc(C(F)(F)F)cc2)c1)N1CC(N2CCN(C(=O)c3cscn3)CC2)C1` [Cpd 1359, 5-({3-[4-(1,3-Thiazol-4-ylcarbonyl)piperazin-1-yl]azetidin-1-yl}carbonyl)-1-[4-(trifluoromethyl)phenyl]-1H-indole], with 1016%; and `Cc1nc(-c2cccc(C(F)(F)F)c2)sc1C(=O)N1CC(N2CCN(C(=O)c3nccs3)CC2)C1` [Cpd 1407, 1-[1-({4-Methyl-2-[3-(trifluoromethyl)phenyl]-1,3-thiazol-5-yl}carbonyl)azetidin-3-yl]-4-(1,3-thiazol-2-ylcarbonyl)piperazine], with 1287%.
The same measure, in the same setting: then `O=C(c1ccc2c(ccn2-c2cccc(C(F)(F)F)c2)c1)N1CC(N2CCN(C(=O)c3cscn3)CC2)C1` [Cpd 1408, 5-({3-[4-(1,3-Thiazol-4-ylcarbonyl)piperazin-1-yl]azetidin-1-yl}carbonyl)-1-[3-(trifluoromethyl)phenyl]-1H-indole], with 1475%.

The next assay has as its target T2, purified wild type MGL (wt-MGLL 6H-11-313) (Homo sapiens, UniProt Q99685).
T2 sequence (Q99685 1-303): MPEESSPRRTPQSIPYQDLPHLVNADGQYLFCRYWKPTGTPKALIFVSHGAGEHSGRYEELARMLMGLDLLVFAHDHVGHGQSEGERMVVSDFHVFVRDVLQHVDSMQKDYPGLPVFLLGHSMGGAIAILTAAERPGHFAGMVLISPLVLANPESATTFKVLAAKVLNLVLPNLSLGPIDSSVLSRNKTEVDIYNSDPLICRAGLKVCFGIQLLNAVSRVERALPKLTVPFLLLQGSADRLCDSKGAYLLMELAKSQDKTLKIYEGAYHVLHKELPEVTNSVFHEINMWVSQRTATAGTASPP
Assay: not given
Particulars: read-out: MGL wild type inh IC50, 4MU-B substrate 10 μM, 37° C.
Take `O=C(c1ccccc1)N1CCN(C2CN(C(=O)c3ccc(Oc4cccc(F)n4)cc3)C2)CC1` [Cpd 522]: the IC50 was determined as 2.68 µM.

The same assay, now with this note: read-out: MGL wild type inh IC50, substrate 4MU-B 10 μM, 37° C.
In the case of `O=C(c1ccccc1)N1CC(N2CCN(C(=O)c3cc4cc(Cl)ccc4o3)CC2)C1` [Cpd 524], the IC50 stood at 4.37 µM.
For the molecule `O=C(c1ccccc1)N1CCN(C2CN(C(=O)c3ccc4c(c3)c(F)cn4-c3ccccc3)C2)CC1` [Cpd 589], the IC50 was found to be 0.146 µM.
For the molecule `O=C(c1ccccc1)N1CCN(C2CN(C(=O)c3ccc4c(ccn4-c4ccccc4)c3F)C2)CC1` [Cpd 632], the 50% inhibitory concentration (IC50) worked out at 0.281 µM.

The same assay, now with this note: read-out: MGL wild type inh IC50, substrate 4MU-B 10 μM, enzyme 5 nM, 37° C.
`O=C(c1ccc(-c2ccccc2)cc1)N1CC(N2CCN(C(=O)c3ccccc3)CC23CC3)C1` [Cpd 1499]: the IC50 is over 16.7 µM.

The target of the next assay is T3, mutant MGL (Homo sapiens, UniProt Q99685, L169S/L176S).
T3 sequence (Q99685 1-303 L169S/L176S): T2 sequence (Q99685 1-303) with L169S, L176S
As to the kind of experiment: MGL ThermoFluor Assay-Mutant. Particulars: read-out: MGL mutant ThermoFluor Kd, ThermoFluor thermal stability binding assay. A general note: Differential scanning fluorimetry follows unfolding on heating by fluorescence.
Protocol: The ThermoFluor (TF) assay is a 384-well plate-based binding assay that measures thermal stability of proteins^1,2. […] TF dye used in all experiments was 1,8-ANS (Invitrogen: A-47). Final TF assay conditions used for MGL studies were 0.07 mg/ml of mutant MGL, 100 μM ANS, 200 mM NaCl, 0.001% Tween-20 in 50 mM PIPES (pH=7.0).
Screening compound plates contained 100% DMSO compound solutions at a single concentration. […] Columns 12 and 24 were used as DMSO reference and contained no compound. […] Following compound dispension, protein and dye solutions were added to achieve the final assay volume of 3 μL.
Bar-coded assay plates were robotically loaded onto a thermostatically controlled PCR-type thermal block and then heated from 40 to 90° C. degrees at a ramp-rate of 1° C./min for all experiments. Fluorescence was measured by continuous illumination with UV light (Hamamatsu LC6), supplied via fiber optics and filtered through a band-pass filter (380-400 nm; >60D cutoff). Fluorescence emission of the entire 384-well plate was detected by measuring light intensity using a CCD camera (Sensys, Roper Scientific) filtered to detect 500±25 nm, resulting in simultaneous and independent readings of all 384 wells. A single image with 20-sec exposure time was collected at each temperature, and the sum of the pixel intensity in a given area of the assay plate was recorded vs temperature and fit to standard equations to yield the Tm^1. • 1.
For some experiments, quantitative NMR spectroscopy (qNMR) was used to measure concentration of the initial 100% DMSO compound solutions and, using the same fitting method, qKd values were determined
Consider `O=C(c1ccccc1)N1CCN(C2CN(C(=O)c3ccc(Oc4cccc(F)n4)cc3)C2)CC1` [Cpd 522], for which the Kd is 4.71 µM.
On the same count and under the same terms, the same measure for `O=C(c1ccccc1)N1CC(N2CCN(C(=O)c3cc4cc(Cl)ccc4o3)CC2)C1` [Cpd 524]: 1.67 µM.
The same measure, in the same setting: the same measure for `COc1cncc(Oc2ccc(C(=O)N3CC(N4CCN(C(=O)c5ccccc5)CC4)C3)cc2)c1` [Cpd 533]: 10 µM.

The same assay, now with this note: read-out: MGL mutant ThermoFluor qKd (μM) (using qNMR conc.), ThermoFluor, compound concentration measured by qNMR.
Turning to `O=C(c1ccccc1)N1CCN(C2CN(C(=O)c3ccc4c(ccn4-c4ccccc4)c3F)C2)CC1` [Cpd 632], the Kd was determined as 0.037 µM.
